As a reminder, the pKa is the negative logarithm of the acid dissociation constant.

Data set [1] is described as follows: Particle size, PdI and zeta potential of mRNA-encapsulating LNPs by dynamic light scattering. The class given is physicochemical. The note with it: FLuc mRNA-encapsulating LNP, cationic lipid:DOPC:Chol=55:5:40 + about 1 mol DMG-PEG2k; for PdI / particle size: dynamic light scattering; for zeta potential: physiological pH. How it is done: A 10 mM ethanol solution of cationic lipid, a 5 mM ethanol solution of DOPC, and a 10 mM ethanol solution of Chol were mixed at desired ratio (cationic lipid:DOPC:Chol=55:5:40 (molar ratio)) in an Eppendorf tube to achieve the total lipid amount of 720 nmol. To the obtained mixture was further added DMG-PEG2k (2 mM ethanol solution) in an amount of about 1 mol with respect to the total amount 100 mol of cationic lipid, DOPC, and Chol, and then ethanol was added to prepare an ethanol solution of the lipid (total amount: 360 μL).
An acidic buffer solution (total amount: 1080 μL) of nucleic acid was prepared by weighing 7.2 μg of mRNA solution (0.6 mg/mL) (CleanCap (registered trade mark) FLuc mRNA (TriLink)) in a 5 mL tube and adding acidic malate buffer (20 mM, pH 3.0) containing NaCl at a final concentration of 30 mM.
An acidic buffer solution of nucleic acid and an ethanol solution of lipid were each weighed in a syringe. Using an ultra high-speed nanomedicament producing apparatus NanoAssmblr (manufactured by Precision NanoSystems), LNP was prepared under the conditions of addition rate of acidic buffer solution of nucleic acid: 3 mL/min, addition rate of ethanol solution of lipid: 1 mL/min, and syringe holder temperature: 25° C., and collected in a 15 mL tube. MES buffer (pH 6.5) (3000 μL) was added to the 15 mL tube, the obtained mixture was transferred to Amicon Ultra 4, and ultrafiltration was performed under centrifugation conditions (25° C., 1000 g, 6 min) to concentrate the mixture to about 100 μL. The obtained concentrate was diluted with PBS to 4 mL, and the mixture was concentrated again under centrifugation conditions (25° C., 1000 g, 6 min), and this operation was performed twice. The obtained concentrate was diluted with PBS to a lipid concentration of 2 mM to give a dispersion containing LNP.
The particle size, PdI (Polydispersity Index, Polydispersity), and zeta potential of the mRNA-encapsulating LNP prepared by the method of the above-mentioned 1 were measured by a dynamic light scattering method.

A further data set deals with Jurkat cells. Briefly: In vitro gene expression (luciferase mRNA) in Jurkat cells. In kind it is cell-based, human. The note with it: FLuc mRNA-encapsulating LNP, 0.4 μg mRNA, FIG. 1. On the procedure: (§1) LNP encapsulating mRNA (CleanCap (registered trade mark) FLuc mRNA (TriLink)) that expresses luciferase (cationic lipid:DOPC:Chol:DMG-PEG2k=55:5:40:1 (molar ratio)) was prepared by the method described in [Experimental Example 2], 1.
Jurkat cells, which are human leukemia T cells, were seeded in a 3.5 cm dish at 2.0×10^5 cells/1.8 mL/Dish 24 hours before transfection. After 24 hr, a medium (RPMI1640) (200 μL) supplemented with D-luciferin was added to the dish at final concentration of 0.1 mM. Each mRNA-encapsulating LNP dispersion (40 to 120 μL) (0.4 μg as mRNA) was added to the aforementioned dish, and the aforementioned dish was set in an incubator luminometer KronosDio. The luminescence intensity of luciferase was measured for 2 min every three hours. The cumulative luciferase luminescence intensity for 24 hr was calculated from the obtained time change of expression. For example, “5.0E+05” means “5.0×10^5”.

Another data set has as its system BALB/c mouse. Briefly: In vivo gene expression (luciferase mRNA), organ luminescence by IVIS. The following applies: tail vein, 0.05 mg mRNA per kg, 4.5 hr after administration, liver and spleen, FIG. 2. On the procedure:
as §1
The prepared each mRNA-encapsulating LNP dispersion was administered from the tail vein of BALB/c mouse (male, 5-week-old). The dose of mRNA was set to 0.05 mg per 1 kg body weight of the mouse, and the dose of the mRNA-encapsulating LNP dispersion was set to 10 μL per 1 g body weight of the mouse. After 4.5 hr from the administration of the mRNA-encapsulating LNP dispersion, a PBS solution of D-luciferin potassium was administered into the abdominal cavity of the mouse. The dose of D-luciferin potassium was set to 3 mg per mouse, and the dose of the PBS solution of D-luciferin potassium was set to 200 μL per mouse. After 15 min from the administration of the PBS solution of D-luciferin potassium, the mouse was euthanized, and the liver, spleen, kidney, heart, and lung were isolated. The luminescence in each organ was quantified using an in vivo imaging system (IVIS) with an exposure of 10 sec. The amount of luminescence in each organ was quantified by image analysis using Live Imaging software attached to IVIS. The amount of luminescence (photons/sec) was calculated from the acquired image and used as an index of gene expression activity. […]

The test system of the next data set is HeLa cells. Put plainly: In vitro gene expression (luciferase mRNA) in HeLa cells. In kind it is cell-based, human. The following applies: FLuc mRNA-encapsulating LNP, 0.4 μg mRNA, FIG. 3. On the procedure: as §1
HeLa cells, which are human cervical cancer cells, were seeded in a 3.5 cm dish at 5.0×10^4 cells/2 mL/Dish 24 hours before transfection. After 24 hours, the medium was exchanged with a culture medium (D-MEM) containing 0.1 mM D-luciferin. Prepared mRNA-encapsulating LNP was diluted with PBS such that the concentration of mRNA was 8 μg/mL. The diluted mRNA-encapsulating LNP solution (50 μL, mRNA: 0.4 μg) was added to the 3.5 cm dish and set in an incubator luminometer KronosDio. The luminescence intensity of luciferase was measured for 2 min every one hour. The cumulative luciferase luminescence intensity for 24 hr was calculated from the obtained time change of expression. For example, “1.0E+06” means “1.0×10^6”.

A short description of data set [2]: Measurement of Liposomal pKa (TNS fluorescence) of LNP without nucleic acid. The class given is physicochemical. The note with it: cationic lipid:DOPC:Chol=52.5:7.5:40 + about 1.5 mol DMG-PEG2k, pH at which relative TNS fluorescence intensity was 50%. How it is done: Lipid nano particles (LNP) without containing nucleic acid were used for the evaluation of Liposomal pKa.
A 10 mM ethanol solution of cationic lipid, a 5 mM ethanol solution of DOPC, and a 10 mM ethanol solution of Chol were mixed at desired ratio (cationic lipid:DOPC:Chol=52.5:7.5:40 (molar ratio)) in an Eppendorf tube to achieve the total lipid amount of 720 nmol. To the obtained mixture was further added DMG-PEG2k (2 mM ethanol solution) in an amount of about 1.5 mol with respect to the total amount 100 mol of cationic lipid, DOPC, and Chol, and then ethanol was added to prepare an ethanol solution of the lipid (total amount: 360 μL).
An acidic malic acid buffer (20 mM, pH 3.0) (1080 μL) containing NaCl at a final concentration of 30 mM and an ethanol solution (360 μL) of lipid were each weighed in a syringe. Using an ultra high-speed nanomedicament producing apparatus NanoAssmblr (manufactured by Precision NanoSystems), LNP was prepared under the conditions of addition rate of acidic buffer solution: 3 mL/min, addition rate of ethanol solution of lipid: 1 mL/min, and syringe holder temperature: 25° C., and collected in a 15 mL tube. MES buffer (pH 6.5) (3000 μL) was added to the 15 mL tube, the obtained mixture was transferred to Amicon Ultra 4, and ultrafiltration was performed under centrifugation conditions (25° C., 1000 g, 6 min) to concentrate the mixture to about 100 μL. The obtained concentrate was diluted with PBS to 4 mL, and the mixture was concentrated again under centrifugation conditions (25° C., 1000 g, 6 min), and this operation was performed twice. The obtained concentrate was diluted with PBS to a lipid concentration of 0.5 mM to give a dispersion containing LNP.
20 mM Citrate buffer, sodium phosphate buffer, and tris HCl buffer, each containing NaCl at a final concentration of 150 mM and adjusted to various pHs within the range of pH 3.0 to 10.0, were prepared. TNS (manufactured by Sigma) was diluted with ultrapure water to 0.6 mM. TNS solution (2 μL), dispersions (12 μL) containing LNP prepared in [Experimental Example 1], 1, and buffers adjusted to various pHs (186 μL) were added to a black 96 well plate. The plate was protected from light and shaken at 400 rpm for 10 min. The fluorescence intensity (excitation: 321 nm/emission: 447 nm) was measured using a plate reader (manufactured by TECAN). The relative fluorescence intensity was calculated as a percentage, with the maximum value of the fluorescence intensity in each LNP being 100% and the minimum value being 0%. Furthermore, the pH at which the relative fluorescence intensity was 50% was taken as Liposomal pKa.

For the compound `CCCCCCCC/C=C\CCCCCCCC(=O)Oc1ccc(CC(=O)OCCOC(=O)C(CSSCC(NC(=O)CN(C)C)C(=O)OCCOC(=O)Cc2ccc(OC(=O)CCCCCCC/C=C\CCCCCCCC)cc2)NC(=O)CN(C)C)cc1` (stereo not drawn) [Example 1], in data set [1], the PdI was found to be 0.105, the particle size was determined as 78 nm and the zeta potential is reported as 0.01 mV. The “gene expression activity (cumulative luciferase luminescence intensity for 24 hr)” value in the data set on Jurkat cells is “superior gene expression activity”. Besides, the “gene expression activity (amount of luminescence in organ)” value in the data set on BALB/c mouse is “superior gene expression activity in the liver and the spleen”. Further, the “gene expression activity (cumulative luciferase luminescence intensity for 24 hr)” value with HeLa cells was “superior gene expression activity”. The pKa in data set [2] was found to be 6.6.

As for `CCCCCCCC/C=C\CCCCCCCC(=O)Oc1ccc(CC(=O)OCCOC(=O)C(CSSCC(NC(=O)CN(C)CC)C(=O)OCCOC(=O)Cc2ccc(OC(=O)CCCCCCC/C=C\CCCCCCCC)cc2)NC(=O)CN(C)CC)cc1` (stereo not drawn) [Example 2], in data set [1], the PdI was 0.073, the particle size turned out to be 82 nm and the zeta potential is −5.02 mV. Moreover, the pKa in data set [2] turned out to be 6.4.

For the compound `CCCCCCCC/C=C\CCCCCCCC(=O)Oc1ccc(CC(=O)OCCOC(=O)C(CSSCC(NC(=O)CN(C)CCC)C(=O)OCCOC(=O)Cc2ccc(OC(=O)CCCCCCC/C=C\CCCCCCCC)cc2)NC(=O)CN(C)CCC)cc1` (stereo not drawn) [Example 3], in data set [1], the PdI was 0.100, the particle size is reported as 111 nm and the zeta potential is −11.2 mV. Further, the pKa in data set [2] worked out at 5.9.

Turning to `CCCCCCCC/C=C\CCCCCCCC(=O)Oc1ccc(CC(=O)OCCOC(=O)C(CSSCC(NC(=O)CN(CC)CC)C(=O)OCCOC(=O)Cc2ccc(OC(=O)CCCCCCC/C=C\CCCCCCCC)cc2)NC(=O)CN(CC)CC)cc1` (stereo not drawn) [Example 4], in data set [1], the PdI came out at 0.091, the particle size worked out at 81 nm and the zeta potential was −7.78 mV. The pKa in data set [2] came out at 6.3.

For the compound `CCCCCCCC/C=C\CCCCCCCC(=O)Oc1ccc(CC(=O)OCCOC(=O)C(CSSCC(NC(=O)CN(CCC)CCC)C(=O)OCCOC(=O)Cc2ccc(OC(=O)CCCCCCC/C=C\CCCCCCCC)cc2)NC(=O)CN(CCC)CCC)cc1` (stereo not drawn) [Example 5], in data set [1], the PdI stood at 0.162, the particle size was 112 nm and the zeta potential was −12.4 mV. Further, the pKa in data set [2] stood at 5.3.

On to `CCCCCCCC/C=C\CCCCCCCC(=O)Oc1ccc(CC(=O)OCCOC(=O)C(CSSCC(NC(=O)CN2CCCCC2)C(=O)OCCOC(=O)Cc2ccc(OC(=O)CCCCCCC/C=C\CCCCCCCC)cc2)NC(=O)CN2CCCCC2)cc1` (stereo not drawn) [Example 7], for which, in data set [1], the PdI worked out at 0.080, the particle size came to 126 nm and the zeta potential is reported as −10.3 mV. Further, the pKa in data set [2] stood at 6.

The values above are taken from patent US12622878B2, “Cationic lipid having cystine skeleton” (NOF CORPORATION, priority 2020, dated 2026).
